Measurements: patent publication US20250261636A1, “QUATERNARY AMMONIUM SANITIZING COMPOSITION” (ECOLAB USA INC., priority 2020, published 2025)
“And” between values parts separate entries of the source, which are not always exact repeats. Equal entries are not always repeated.

Columns and labels:
[1] = system: Escherichia coli ATCC 11229; test: AOAC Method 960.09 Germicidal and Detergent Sanitizing Action of Disinfectants, food contact sanitizing suspension test; type: cell-based
Experimental: (§1) The microbial efficacy of the multipurpose sanitizing composition was evaluated for food contact applications. The purpose of the testing is to determine the efficacy of compositions used for sanitizing food contact surfaces, which in the evaluations were pre-cleaned, non-porous surfaces using AOAC Method 960.09 Germicidal and Detergent Sanitizing Action of Disinfectants. […] The test organisms included Staphylococcus aureus ATCC 6538 and Escherichia coli ATCC 11229.
(§2) The pH was adjusted by use of a polycarboxylic acid (unless otherwise noted, such as the polycarboxylate citrate tested at pH 8). In this screening test pH 9, 8, 7, 5, 4, and 3 were tested. “NT” indicates a condition was “Not Tested.”

[2] = system: Staphylococcus aureus ATCC 6538; test: as above; type: cell-based; details: for Average Log Reduction / CFU - Dilution 1E−01 / CFU - Dilution 1E−02 / CFU/mL / Log / Log Reduction: 50 ppm; for Average Log Reduction / CFU - Dilution 1E−01 / CFU - Dilution 1E−02 / CFU/mL / Log: Example 4; for Log Reduction: Example 4, per replicate
Experimental: as §1, §2

[3] = pH 7.5-8 (no pH adjustment), 77° F.
[4] = 50 ppm, pH 4, 77° F., Example 4
[5] = 50 ppm, pH 5, 77° F., Example 4
[6] = 50 ppm, pH 6, 77° F., Example 4
[7] = 50 ppm, pH 7, 77° F., Example 3
[8] = 50 ppm, pH 7 as printed (second sample of Table 15), 77° F.
[9] = 50 ppm, pH 7.5-8 (no pH adjustment), 77° F., Example 4

Compound: CCCCCCCC[N+](C)(C)CCCCCCCC.[Cl-] [Bardac LF, dioctyl dimethyl ammonium chloride]
- Average Log Reduction ([1]; 30 ppm, pH 5, 120° F.): 3.06 log
- CFU - Dilution 1E−01 ([1]; 30 ppm, pH 5, 120° F.): TNTC
- CFU - Dilution 1E−02 ([1]; 30 ppm, pH 5, 120° F.): TNTC
- CFU/mL ([1]; 30 ppm, pH 5, 120° F.): 3.0E+04 CFU/mL
- Log ([1]; 30 ppm, pH 5, 120° F.): 4.48
- Log Reduction ([1]; 30 ppm, pH 5, 120° F., per replicate): 3.06 log
- Average Log Reduction ([1]; 30 ppm, pH 7, 120° F.): 3.06 log
- log reduction E. coli (ATCC 11229) ([1]; 60 ppm, pH 5, 120° F.): 3.06 log
- log reduction E. coli (ATCC 11229) ([1]; 60 ppm, pH 7, 120° F.): 3.06 log
- log reduction E. coli (ATCC 11229) ([1]; 90 ppm, pH 5, 120° F.): 3.06 log
- log reduction E. coli (ATCC 11229) ([1]; 90 ppm, pH 7, 120° F.): 3.06 log

Compound: didecyl dimethyl ammonium carbonate/bicarbonate [CarboQuat]
- log reduction S. aureus (ATCC 6538) ([2]; 20 ppm, pH 5, 120° F.): 6.88 log
- log reduction S. aureus (ATCC 6538) ([2]; 30 ppm, pH 5, 120° F.): 6.69 log and 6.88 log
- log reduction S. aureus (ATCC 6538) ([2]; 30 ppm, pH 8, 120° F.): 6.69 log
- log reduction S. aureus (ATCC 6538) ([2]; 40 ppm, pH 8, 120° F.): 6.69 log
- Average Log Reduction ([2]; pH 4, 77° F.): 6.89 log
- CFU - Dilution 1E−01 ([2]; pH 4, 77° F.): 0 CFU
- CFU - Dilution 1E−02 ([2]; pH 4, 77° F.): 0 CFU
- CFU/mL ([2]; pH 4, 77° F.): 1.0E+01 CFU/mL
- Log ([2]; pH 4, 77° F.): 1.00
- Log Reduction ([2]; pH 4, 77° F.): 6.89 log
- Average Log Reduction ([2]; pH 5, 77° F.): 6.89 log
- CFU - Dilution 1E−01 ([2]; pH 5, 77° F.): 0 CFU
- CFU - Dilution 1E−02 ([2]; pH 5, 77° F.): 0 CFU
- CFU/mL ([2]; pH 5, 77° F.): 1.0E+01 CFU/mL
- Log ([2]; pH 5, 77° F.): 1.00
- Log Reduction ([2]; pH 5, 77° F.): 6.89 log
- Average Log Reduction ([2]; pH 6, 77° F.): 6.89 log
- CFU - Dilution 1E−01 ([2]; pH 6, 77° F.): 0 CFU
- CFU/mL ([2]; pH 6, 77° F.): 1.0E+01 CFU/mL
- Log ([2]; pH 6, 77° F.): 1.00
- Log Reduction ([2]; pH 6, 77° F.): 6.89 log
- Average Log Reduction [2, 3]: 6.89 log
- CFU - Dilution 1E−01 [2, 3]: 0 CFU
- CFU - Dilution 1E−02 [2, 3]: 0 CFU
- CFU/mL [2, 3]: 1.0E+01 CFU/mL
- Log [2, 3]: 1.00
- Log Reduction [2, 3]: 6.89 log
- log reduction E. coli (ATCC 11229) ([1]; 20 ppm, pH 5, 120° F.): 5.08 log
- log reduction E. coli (ATCC 11229) ([1]; 30 ppm, pH 3, 120° F.): 6.25 log
- log reduction E. coli (ATCC 11229) ([1]; 30 ppm, pH 4, 120° F.): 6.88 log
- Average Log Reduction ([1]; 30 ppm, pH 5, 104° F.): 5.61 log
- CFU - Dilution 1E−01 ([1]; 30 ppm, pH 5, 104° F.): 14 CFU and 28 CFU
- CFU - Dilution 1E−02 ([1]; 30 ppm, pH 5, 104° F.): 3 CFU and 6 CFU
- Log Reduction ([1]; 30 ppm, pH 5, 104° F., per replicate): 5.76 log and 5.46 log
- log reduction E. coli (ATCC 11229) ([1]; 30 ppm, pH 5, citric acid, 120° F.): 6.67 log
- log reduction E. coli (ATCC 11229) ([1]; 30 ppm, pH 5, formic acid, 120° F.): 6.67 log
- Average Log Reduction ([1]; 30 ppm, pH 7, 104° F.): 3.47 log
- CFU - Dilution 1E−01 ([1]; 30 ppm, pH 7, 104° F.): TNTC
- CFU - Dilution 1E−02 ([1]; 30 ppm, pH 7, 104° F.): TNTC
- CFU/mL ([1]; 30 ppm, pH 7, 104° F.): 3.00E+04 CFU/mL
- Log ([1]; 30 ppm, pH 7, 104° F.): 4.48
- Log Reduction ([1]; 30 ppm, pH 7, 104° F., per replicate): 3.47 log
- Average Log Reduction ([1]; 30 ppm, pH 7, 120° F.): 6.68 log
- CFU - Dilution 1E−01 ([1]; 30 ppm, pH 7, 120° F.): 0 CFU
- CFU - Dilution 1E−02 ([1]; 30 ppm, pH 7, 120° F.): 0 CFU
- CFU/mL ([1]; 30 ppm, pH 7, 120° F.): 1E+01 CFU/mL
- Log ([1]; 30 ppm, pH 7, 120° F.): 1.00
- Log Reduction ([1]; 30 ppm, pH 7, 120° F., per replicate): 6.68 log
- Average Log Reduction ([1]; 30 ppm, pH 8, 120° F.): 3.21 log
- CFU - Dilution 1E−01 ([1]; 30 ppm, pH 8, 120° F.): TNTC
- CFU - Dilution 1E−02 ([1]; 30 ppm, pH 8, 120° F.): TNTC
- CFU/mL ([1]; 30 ppm, pH 8, 120° F.): 3.00E+04 CFU/mL
- Log ([1]; 30 ppm, pH 8, 120° F.): 4.48
- Log Reduction ([1]; 30 ppm, pH 8, 120° F., per replicate): 3.21 log
- log reduction E. coli (ATCC 11229) ([1]; 30 ppm, pH 8, citrate, 120° F.): 3.20 log
- Average Log Reduction ([1]; 40 ppm, pH 8, 120° F.): 5.70 log
- Log Reduction ([1]; 40 ppm, pH 8, 120° F., per replicate): 5.28 log and 6.12 log
- Average Log Reduction [1, 4]: 5.22 log
- CFU - Dilution 1E−01 [1, 4]: 44 CFU
- CFU - Dilution 1E−02 [1, 4]: 7 CFU and 4 CFU
- CFU/mL [1, 4]: 4.6E+02 CFU/mL and 4.4E+02 CFU/mL
- Log [1, 4]: 2.67 and 2.64
- Log Reduction ([1]; 50 ppm, pH 4, 77° F., Example 4, per replicate): 5.21 log and 5.23 log
- log reduction E. coli (ATCC 11229) ([1]; 50 ppm, pH 5, 77° F., Example 3): 6.70 log
- Average Log Reduction [1, 5]: 6.87 log
- CFU - Dilution 1E−01 [1, 5]: 0 CFU
- CFU - Dilution 1E−02 [1, 5]: 0 CFU
- CFU/mL [1, 5]: 1.0E+01 CFU/mL
- Log [1, 5]: 1.00
- Log Reduction ([1]; 50 ppm, pH 5, 77° F., Example 4, per replicate): 6.87 log
- log reduction E. coli (ATCC 11229) ([1]; 50 ppm, pH 5, 104° F.): 6.95 log
- Average Log Reduction [1, 6]: 4.07 log
- CFU - Dilution 1E−01 [1, 6]: TNTC
- CFU - Dilution 1E−02 [1, 6]: 84 CFU and 48 CFU
- CFU/mL [1, 6]: 8.4E+03 CFU/mL and 4.8E+03 CFU/mL
- Log [1, 6]: 3.92 and 3.68
- Log Reduction ([1]; 50 ppm, pH 6, 77° F., Example 4, per replicate): 3.95 log and 4.19 log
- Average Log Reduction [1, 7]: 3.35 log
- CFU - Dilution 1E−01 [1, 7]: TNTC
- CFU - Dilution 1E−02 [1, 7]: TNTC
- CFU/mL [1, 7]: 3.00E+04 CFU/mL
- Log [1, 7]: 4.48
- Log Reduction ([1]; 50 ppm, pH 7, 77° F., Example 3, per replicate): 3.35 log
- log reduction E. coli (ATCC 11229) ([1]; 50 ppm, pH 7, 104° F.): 6.71 log
- Average Log Reduction [1, 8]: 6.70 log
- CFU - Dilution 1E−01 [1, 8]: 2 CFU and 1 CFU
- CFU - Dilution 1E−02 [1, 8]: 0 CFU
- CFU/mL [1, 8]: 2E+01 CFU/mL and 1E+01 CFU/mL
- Log [1, 8]: 1.26 and 1.00
- Log Reduction ([1]; 50 ppm, pH 7 as printed (second sample of Table 15), 77° F., per replicate): 6.57 log and 6.83 log
- Average Log Reduction [1, 9]: 3.40 log
- CFU - Dilution 1E−01 [1, 9]: TNTC
- CFU - Dilution 1E−02 [1, 9]: TNTC
- CFU/mL [1, 9]: 3.0E+04 CFU/mL
- Log [1, 9]: 4.48
- Log Reduction ([1]; 50 ppm, pH 7.5-8 (no pH adjustment), 77° F., Example 4, per replicate): 3.40 log
- log reduction E. coli (ATCC 11229) ([1]; 50 ppm, pH 9, 77° F., Example 3): 3.35 log
- log reduction E. coli (ATCC 11229) ([1]; 50 ppm, pH 9, 104° F.): 5.33 log
- log reduction E. coli (ATCC 11229) ([1]; 75 ppm, pH 5, 77° F., Example 3): 6.83 log
- log reduction E. coli (ATCC 11229) ([1]; 75 ppm, pH 5, 104° F.): 6.95 log
- log reduction E. coli (ATCC 11229) ([1]; 75 ppm, pH 7, 77° F., Example 3): 6.83 log
- log reduction E. coli (ATCC 11229) ([1]; 75 ppm, pH 7, 104° F.): 6.95 log
- log reduction E. coli (ATCC 11229) ([1]; 75 ppm, pH 9, 77° F., Example 3): 6.50 log
- log reduction E. coli (ATCC 11229) ([1]; 75 ppm, pH 9, 104° F.): 6.95 log
- log reduction E. coli (ATCC 11229) ([1]; 100 ppm, pH 5, 77° F., Example 3): 6.83 log
- log reduction E. coli (ATCC 11229) ([1]; 100 ppm, pH 9, 77° F., Example 3): 6.83 log
